Consider ten compounds from patent US20260026499A1 (priority 2022, published 2026).

Converted amounts (≈) assume the structure as drawn. Like-named read-outs stand apart in the source and are kept apart here.

Holding throughout (type): cell-based
Assay [1] concerns Fusarium graminearum. Kind of assay: microbe, parasite or virus in culture. The settings on record: for EC50: Fusarium graminearum, 72 h; for ATI: ZJS178 as standard reagent, B = pydiflumetofen.
In assay [2] the test system is tebuconazole-sensitive Fusarium graminearum (TS). Kind of assay: microbe, parasite or virus in culture. The settings on record: for EC50: Fusarium graminearum, 72 h; for Actual Toxicity Index (ATI): ZJS178 as standard reagent, TS strain.
Assay [3] has as its system Fusarium oxysporum. Kind of assay: microbe, parasite or virus in culture. The settings on record: for EC50: Fusarium oxysporum, 72 h.
Assay [4] has as its system F. oxysporum f.sp. lycopersici. The settings on record: B = azoxystrobin; for ATI: ZJS178 as standard reagent; for EC50: mycelial growth, PDA with 50 μg/mL SHAM, 25° C., 3 days. On the procedure:
Test object: F. oxysporum f.sp. lycopersici isolated from diseased tomatoes from the field. The tested strains were identified by morphology and pathogenicity, and then stored in the laboratory for future use.
(§1) The above-mentioned F. oxysporum f.sp. lycopersici was inoculated on a PDA medium, and 50 μg/mL salicylhydroxamic acid (SHAM) was added to the culture medium to inhibit the […] bypass respiration.

Assay [5] has as its system Fusarium oxysporum. The settings on record: B = fludioxonil; for EC50: Fusarium oxysporum, 72 h, mycelial growth, PDA, 25° C., 3 days; for ATI: ZJS178 as standard reagent. The source says: Test object: Fusarium oxysporum preserved in the laboratory.
(§2) The bioassay method was referred to the description in Example 9.

The test system of assay [6] is Fusarium fujikuroi. The settings on record: B = fludioxonil; for EC50: Fusarium fujikuroi, 72 h, mycelial growth, PDA, 25° C., 3 days; for ATI: ZJS178 as standard reagent.
Text: Test object: Fusarium fujikuroi preserved in a culture room of the laboratory.
as §2

Assay [7] deals with Fusarium fujikuroi. Description: microbe, parasite or virus in culture. The settings on record: for EC50: Fusarium fujikuroi, 72 h.
Assay [8] relates to Fusarium graminearum. Description: microbe, parasite or virus in culture. The settings on record: for ATI: B = prochloraz; for EC50: Fusarium graminearum.
Assay [9] has as its system Fusarium oxysporum. Description: microbe, parasite or virus in culture.
The test system of assay [10] is Fusarium moniliforme. The settings on record: B = pyraclostrobin; for EC50: Fusarium verticillioides, mycelial growth, method of Example 17; for ATI: ZJS178 as standard reagent. On the procedure:
as §1
Test object: Fusarium moniliforme preserved in a culture room of the laboratory. The bioassay method was referred to the description in Example 17.

In assay [11] the test system is F. oxysporum f.sp. niveum. The settings on record: for EC50: Fusarium oxysporum, 72 h.
Assay [12] deals with metconazole-sensitive Fusarium fujikuroi(MS). Description: microbe, parasite or virus in culture.
Assay [13] relates to metconazole-resistance Fusarium fujikuroi(MR). Kind of assay: microbe, parasite or virus in culture.

Broadly, the EC50 is the concentration needed to bring the measured effect to its halfway point. Regarding `CON(C(=O)c1cn(C)nc1C(F)F)C(C)Cc1c(Cl)cc(Cl)cc1Cl` (racemic) [Pydiflumetofen, 3-(difluoromethyl)-N-methoxy-1-methyl-N-[(RS)-1-methyl-2-(2,4,6-trichlorophenyl)ethyl]pyrazole-4-carboxamide, reference compound], in assay [1], the EC50 is 0.319 µg/mL (≈ 0.748 µM) and the ATI was determined as 11.88.

As to `CC(C)(C)C(O)(CCc1ccc(Cl)cc1)Cn1cncn1` (racemic) [Tebuconazole (B), (RS)-1-p-chlorophenyl-4,4-dimethyl-3-(1H-1,2,4-triazol-1-ylmethyl)pentan-3-ol, reference compound], in assay [2], the EC50 came to 0.175 µg/mL (≈ 0.567 µM) and the “Actual Toxicity Index (ATI)” value was found to be 22.05. In assay [3], this compound showed an ATI of 14.46 and an EC50 of 0.276 µg/mL (≈ 0.896 µM).

For the compound `CO/C=C(/C(=O)OC)c1ccccc1Oc1cc(Oc2ccccc2C#N)ncn1` [Azoxystrobin (B), (E)-methyl 2-{2-[6-(2-cyanophenoxy)pyrimidin-4-yloxy]phenyl}-3-strobilurin, reference compound], in assay [4], the ATI was 5.59 and the EC50 was 0.8247 µg/mL.

`N#Cc1c[nH]cc1-c1cccc2c1OC(F)(F)O2` [Fludioxonil (B), 4-(2,2-difluoro-1,3-benzodioxol-4-yl) pyrrole-3-carbonitrile, reference compound]: the EC50 came out at 0.0683 µg/mL (≈ 0.275 µM) in assay [5] and 0.0529 µg/mL (≈ 0.213 µM) in assay [6]. In addition, the results for the ATI in [5] and in [6] were 128.55 and 90.93, respectively.

With `Cc1nn(C)c(F)c1C(=O)Nc1ccccc1C(C)CC(C)C` (centres unmarked) [Penflufen (B), 5-fluoro-1,3-dimethyl-N-[2-(4-methylpentan-2-yl)phenyl]-1H-pyrazole-4-carboxamide, reference compound], in assay [7], the ATI amounted to 22.85 and the EC50 came to 0.294 µg/mL (≈ 0.925 µM).

For the compound `CCCN(CCOc1c(Cl)cc(Cl)cc1Cl)C(=O)n1ccnc1` [Prochloraz (B), N-propyl-N-[2-(2,4,6-trichlorophenoxy)ethyl]-imidazole-1-carboxamide, reference compound], in assay [8], the ATI is 11.88 and the half-maximal effective concentration (EC50) was 0.319 µg/mL (≈ 0.847 µM).

In assay [9], `CCCN(CCOc1c(Cl)cc(Cl)cc1Cl)C(=O)n1ccnc1.CCCN(CCOc1c(Cl)cc(Cl)cc1Cl)C(=O)n1ccnc1.CCCN(CCOc1c(Cl)cc(Cl)cc1Cl)C(=O)n1ccnc1.CCCN(CCOc1c(Cl)cc(Cl)cc1Cl)C(=O)n1ccnc1.[Cl][Mn][Cl]` [Prochloraz-manganese chloride, reference compound] showed an ATI of 14.46 and an EC50 of 0.2758 µg/mL.

In assay [10], `COC(=O)N(OC)c1ccccc1COc1ccn(-c2ccc(Cl)cc2)n1` [Pyraclostrobin (B), methyl N-[2-[[1-(4-chlorophenyl)pyrazol-3-yl]oxymethyl]phenyl]-N-methoxycarbamate, reference compound] registered an EC50 of 4.99 µg/mL (≈ 12.9 µM) and an ATI of 13.61.

`COC(=O)NC(=S)Nc1ccccc1NC(=S)NC(=O)OC` [Thiophanate-, 1,2-bis (3-carbomethoxy-2-thioureido)benzene, reference compound]: the response in assay [11] was half-maximal at 0.222 µg/mL (≈ 0.65 µM) (EC50).

As for `CCOC(=O)/C(C#N)=C(\N)c1ccc(N(C)CC)cc1` [ZJS178 (A), ethyl 2-cyano-3-amino-3-[4-(N-ethyl-N-methylamino)phenyl]acrylate], the EC50 in assay [4] (Fusarium oxysporum, 72 h, read-out: EC50) was found to be 0.0461 µg/mL; in [1], 0.0379 µg/mL (≈ 0.139 µM); in assay [12] (Fusarium fujikuroi, 72 h), 0.069 µg/mL (≈ 0.252 µM); in assay [5] it was 0.0878 µg/mL (≈ 0.321 µM); in [7], 0.0671 µg/mL (≈ 0.245 µM); in assay [8] it was 0.0379 µg/mL (≈ 0.139 µM). Also, the EC50 in [9] (Fusarium oxysporum) was 0.0399 µg/mL (≈ 0.146 µM); in assay [11], 0.0569 µg/mL (≈ 0.208 µM); in [2], 0.0385 µg/mL (≈ 0.141 µM); in assay [3] it was 0.0399 µg/mL (≈ 0.146 µM); in assay [13] (Fusarium fujikuroi, 72 h), 0.0621 µg/mL (≈ 0.227 µM); in assay [10], 0.678 µg/mL (≈ 2.48 µM). The same compound showed an EC50 in assay [6] of 0.0481 µg/mL (≈ 0.176 µM). The ATI in assay [4], in assay [1], in assay [12], in [5], in [7] and in assay [8] was 100.00 throughout. For the same compound, the ATI in [9] is on record as 100.00; in assay [3] it was 100.00; in [13] (ZJS178 as standard reagent, MR strain) it was 100.00; in [10], 100.00; in assay [6], 100.00. Further, the “Actual Toxicity Index” value in assay [11] (ZJS178 as standard reagent, B = thiophanate-methyl) was 100.00. In [2], the “Actual Toxicity Index (ATI)” value was determined as 100.00.
